Measured values reported in patent US4350692A, “3,7-Disubstituted-3-cephem-4-carboxylic acids” (Fujisawa Pharmaceutical Co., Ltd., priority 1976, dated 1982).
≈ marks a conversion by molar mass, not a printed value.

Test system: Pseudomonus aeruginosa NCTC-10490
Test: In vitro activity, two-fold agar-plate dilution method, minimal inhibitory concentration (MIC)
Type: cell-based
Conditions: 20 h, read-out: MIC (minimal inhibitory concentration)

For `Cn1nnnc1SCC1=C(C(=O)O)N2C(=O)[C@@H](NC(=O)[C@H](NC(=O)c3cc(Cl)ccc3O)c3ccccc3)[C@H]2SC1` [Example 1, 7-[D-N-(2-hydroxy-5-chlorobenzoyl)-2-phenylglycinamido]-3-(1-methyl-1H-tetrazol-5-ylthiomehyl)-3-cephem-4-carboxylic acid], which MIC is on record?
Its MIC is 1.56 µg/mL (≈ 2.53 µM).

Which MIC does the source give for `Cn1nnnc1SCC1=C(C(=O)O)N2C(=O)C(NC(=O)[C@H](NC(=O)c3cc(C#N)c(Cl)cc3O)c3ccccc3)C2SC1` (stereo partly drawn) [Example 6, 7-[D-N-(2-hydroxy-4-chloro-5-cyanobenzoyl)-2-phenylglycinamido]-3-(1-methyl-1H-tetrazol-5-ylthiomethyl)-3-cephem-4-carboxylic acid] here?
Its MIC is 1.56 µg/mL (≈ 2.43 µM).

For `Cn1nnnc1SCC1=C(C(=O)O)N2C(=O)C(NC(=O)[C@H](NC(=O)c3cc([N+](=O)[O-])cc([N+](=O)[O-])c3O)c3ccccc3)C2SC1` (stereo partly drawn) [Example 9, 7-[D-N-(2-hydroxy-3,5-dinitrobenzoyl)-2-phenylglycinamido]-3-(1-methyl-1H-tetrazol-5-ylthiomethyl)-3-cephem-4-carboxylic acid], which MIC is on record?
The MIC was 1.56 µg/mL (≈ 2.32 µM).

For `Cn1nnnc1SCC1=C(C(=O)O)N2C(=O)C(NC(=O)[C@H](NC(=O)c3ccc(O)cc3O)c3ccccc3)C2SC1` (stereo partly drawn) [Example 25, 7-[D-N-(2,4-dihydroxybenzoyl)-2-phenylglycinamido]-3-(1-methyl-1H-tetrazol-5-ylthiomethyl)-3-cephem-4-carboxylic acid], which MIC is on record?
Its MIC is 1.56 µg/mL (≈ 2.61 µM).

With `CN1CCN(S(=O)(=O)c2ccc(O)c(C(=O)N[C@@H](C(=O)NC3C(=O)N4C(C(=O)O)=C(CSc5nnnn5C)CSC34)c3ccccc3)c2)CC1` (stereo partly drawn) [Example 52, 7-[D-N-{2-hydroxy-5-(4-methyl-1-piperazinylsulfonyl)benzoyl}-2-phenylglycinamido]-3-(1-methyl-1H-tetrazol-5-ylthiomethyl)-3-cephem-4-carboxylic acid] as the molecule, how does the MIC read?
The MIC was 1.56 µg/mL (≈ 2.1 µM).

With `CCOC(=O)CS(=O)(=O)NCc1nnc(SCC2=C(C(=O)O)N3C(=O)C(NC(=O)[C@H](NC(=O)c4cc(Cl)cc(Cl)c4O)c4ccccc4)C3SC2)s1` (stereo partly drawn) [Example 53, 7-[D-N-(2-hydroxy-3,5-dichlorobenzoyl)-2-phenylglycinamido]-3-(5-ethoxycarbonylmesylaminomethyl-1,3,4-thiadiazol-2-ylthiomethyl)-3-cephem-4-carboxylic acid] as the molecule, how does the MIC read?
The MIC was 1.56 µg/mL (≈ 1.88 µM).

With `CC(=O)OCC1=C(C(=O)O)N2C(=O)[C@@H](NC(=O)[C@H](NC(=O)COc3ccc(Cl)cc3C(=O)c3ccccc3)c3ccccc3)[C@H]2SC1` [Example 67, 7-[D-N-{2-(2-benzoyl-4-chlorophenoxy)acetyl}-2-phenylglycinamido]cephalosporanic acid] as the molecule, how does the MIC read?
Its MIC is 1.56 µg/mL (≈ 2.3 µM).

Same assay, conditions: heart infusion agar (HI-agar); overnight culture in Trypticase-soy broth (10^8 viable cells per ml.); incubation at 37° C. for 20 hours; read-out: MIC (minimal inhibitory concentration)

For `Cn1nnnc1SCC1=C(C(=O)O)N2C(=O)C(NC(=O)[C@H](NC(=O)c3cc(Cl)cc(Cl)c3O)c3ccccc3)C2SC1` (stereo partly drawn) [Example 2, 7-[D-N-(2-hydroxy-3,5-dichlorobenzoyl)-2-phenylglycinamido]-3-(1-methyl-1H-tetrazol-5-ylthiomethyl)-3-cephem-4-carboxylic acid], which MIC is on record?
The MIC was 0.78 µg/mL (≈ 1.2 µM).

`Cn1nnnc1SCC1=C(C(=O)O)N2C(=O)C(NC(=O)[C@H](NC(=O)c3cc([N+](=O)[O-])ccc3O)c3ccccc3)C2SC1` (stereo partly drawn) [Example 3, 7-[D-N-(2-hydroxy-5-nitrobenzoyl)-2-phenylglycinamido]-3-(1-methyl-1H-tetrazol-5-ylthiomethyl)-3-cephem-4-carboxylic acid] was tested. Which MIC did it give?
The MIC was 0.78 µg/mL (≈ 1.24 µM).

Which MIC does the source give for `Cn1nnnc1SCC1=C(C(=O)O)N2C(=O)C(NC(=O)[C@H](NC(=O)c3cc(S(N)(=O)=O)ccc3O)c3ccccc3)C2SC1` (stereo partly drawn) [Example 4, 7-[D-N-(2-hydroxy-5-sulfamoylbenzoyl)-2-phenylglycinamido]-3-(1-methyl-1H-tetrazol-5-ylthiomethyl)-3-cephem-4-carboxylic acid] here?
The MIC was 0.78 µg/mL (≈ 1.18 µM).

How did the MIC turn out when `CC(=O)c1ccc(O)c(C(=O)N[C@@H](C(=O)NC2C(=O)N3C(C(=O)O)=C(CSc4nnnn4C)CSC23)c2ccccc2)c1` (stereo partly drawn) [Example 5, 7-[D-N-(2-hydroxy-5-acetylbenzoyl)-2-phenylglycinamido]-3-(1-methyl-1H-tetrazol-5-ylthiomethyl)-3-cephem-4-carboxylic acid] was run?
Its MIC is 0.78 µg/mL (≈ 1.25 µM).

`Cn1nnnc1SCC1=C(C(=O)O)N2C(=O)C(NC(=O)[C@H](NC(=O)c3cc(C(N)=O)c(Cl)cc3O)c3ccccc3)C2SC1` (stereo partly drawn) [Example 7, 7-[D-N-(2-hydroxy-4-chloro-5-carbamoylbenzoyl)-2-phenylglycinamido]-3-(1-methyl-1H-tetrazol-5-ylthiomethyl)-3-cephem-4-carboxylic acid] was tested. Which MIC did it give?
The MIC was 0.78 µg/mL (≈ 1.18 µM).

Which MIC does the source give for `Cn1nnnc1SCC1=C(C(=O)O)N2C(=O)C(NC(=O)[C@H](NC(=O)c3cc(S(N)(=O)=O)c(Cl)cc3O)c3ccccc3)C2SC1` (stereo partly drawn) [Example 8, 7-[D-N-(2-hydroxy-4-chloro-5-sulfamoylbenzoyl)-2-phenylglycinamido]-3-(1-methyl-1H-tetrazol-5-ylthiomethyl)-3-cephem-4-carboxylic acid] here?
The MIC was 0.78 µg/mL (≈ 1.12 µM).

With `Cc1nnc(SCC2=C(C(=O)O)N3C(=O)C(NC(=O)[C@H](NC(=O)[C@H](O)c4ccccc4)c4ccccc4)C3SC2)s1` (stereo partly drawn) [Example 56, 7-[D-N-(D-mandeloyl)-2-phenylglycinamido]-3-(5-methyl-1,3,4-thiadiazol-2-ylthiomethyl)-3-cephem-4-carboxylic acid] as the molecule, how does the MIC read?
The MIC was 12.5 µg/mL (≈ 20.4 µM).

How did the MIC turn out when `Cn1nnnc1SCC1=C(C(=O)O)N2C(=O)C(NC(=O)[C@H](NC(=O)COc3cc(Cl)cc(Cl)c3O)c3ccccc3)C2SC1` (stereo partly drawn) [Example 63, 7-[D-N-{2-(2-hydroxy-3,5-dichlorophenoxy)acetyl}-2-phenylglycinamido]-3-(1-methyl-1H-tetrazol-5-ylthiomethyl)-3-cephem-4-carboxylic acid] was run?
Its MIC is 6.25 µg/mL (≈ 9.18 µM).

For `CC(=O)OCC1=C(C(=O)O)N2C(=O)[C@@H](NC(=O)[C@H](NC(=O)COc3ccc(Cl)cc3C(=O)c3ccc(NC(=O)CSCC(=O)O)cc3)c3ccccc3)[C@H]2SC1` [Example 69, 7-[D-N-[2-{2-(4-carboxymethylthioacetamidobenzoyl)-4-chlorophenoxy}acetyl]-2-phenylglycinamido]cephalosporanic acid], which MIC is on record?
The MIC was 6.25 µg/mL (≈ 7.57 µM).
